Experimental data published in US20100331349A1, “Use of gamma-aminobutyric acid to mask or reduce an unpleasant flavour impression and preparations containing gamma-aminobutyric” (Symrise GmbH & Co. KG, priority 2004, published 2010).

Key:
[1] = Masking or reduction of unpleasant (bitter) flavour impression in preparations, rated by a group of experts; details: against caffeine, quinine, naringin, potassium chloride, magnesium sulfate, beta-lactam antibiotics
Procedure: (§1) To quantify the reduction in the bitter impression with the use of γ-aminobutyric acid, the bitterness of a 500 ppm caffeine solution (comparative solution; not according to the invention) and of four samples according to the invention containing 500 ppm of caffeine and differing amounts of γ-aminobutyric acid was determined by a group of experts (rating 0 [not bitter] to 10 [extremely bitter]).
as §1, with “impression,” for “impression with the use of γ-aminobutyric acid,”, “12.5” for “500”, “quinine hydrochloride” for “caffeine”, “eight” for “four”, “5” for “10”
To quantify the reduction in the bitter impression, the bitterness of (a) a 500 ppm caffeine solution (basic solution), (b) a sample containing 500 ppm of caffeine, 100 ppm of homoeriodictyol sodium salt and 20 ppm of γ-aminobutyric acid, and (c) a sample containing 500 ppm of caffeine and 20 ppm of γ-aminobutyric acid was determined by a group of experts (rating 1 [not bitter] to 10 [extremely bitter]). […]

[2] = WO 00/21390; cited from earlier work

Compound	concentration in preparations at which the unpleasant, in particular bitter, flavour impression is reduced or completely suppressed [1]	concentration needed as bitterness-masking agent [2]
NCCCC(=O)O [γ-aminobutyric acid]	less than 0.1 wt. %	
polyglutamic acid		around 1 wt. %
